US20050008639A1, “Methods of modulating homing of T cell by interruption of chemokine/chemokine receptor signaling” (priority 2003, published 2005)
Entries after “also recorded” stand apart in the source; their conditions may differ.

Assays:
IS-CD8^+ cells = assay: PTx-treated IS-CD8+ cells cultured in vitro (viability, peptide response); format: cell-based, mouse; details: 24 hrs after treatment (not shown)
Procedure: Treatment with pertussis toxin (PTx)—For treatment with PTx, IS-CD8^+ cells were harvested, resuspended at 10^7 cells/ml in complete medium containing 100 ng/ml of PTx (Sigma) and incubated for 2 h at 37° C. The final 30 min of incubation were combined with DiI-labeling. Treated cells were washed and injected into irradiated hosts or cultured under standard conditions in vitro.

[1] = test system: G-protein-coupled chemokine receptors; assay: Homing of PTx-treated DiI-labeled IS-CD8+ cells after injection into NOD mice; format: in vivo, mouse
Procedure: Fluorescent tracing and morphometric analysis—For trafficking studies, IS-CD8^+ and control T cells were incubated at 10^7 cells /ml for 30 min at 37° C. in the dark in complete medium containing 5% FCS and 0.0075 mg/ml of fluorescent dye didodecyltetramethylindocarbocyanine perchlorate (DiI) (Molecular Probes, Eugene, Oreg.), then washed 3 times with PBS. For analysis of short-term proliferation and adhesion studies IS-CD8^+ cells were stained in vitro with fluorescent dye carboxyfluorescein diacetate succinimidyl ester (CFSE) (Molecular Probes, Eugene, Oreg.) as described (12). 10^7 of labeled IS-CD8^+ cells were injected i.v. into irradiated (725 Rad, 24 h in advance) animals. Mice were sacrificed at time points indicated, and their spleens, pancreata, lymph nodes, peripheral blood and lungs were removed, lymphocytes were isolated as described (5), stained with allophycocyanin-conjugated anti-CD8 (53-6.7) antibody (BD Pharmingen), and subjected to FACS analysis. Alternatively, organs were fixed in 0.1 M periodate-lysine-paraformaldehyde phosphate buffer, sucrose-saturated, and freeze-molded in OCT compound (Sakura Finetek Inc., Torrance, Calif.). […] Cells were counted within areas relevant to a given islet (see FIG. 1 for representative image). […]

[2] = test system: islet cells / aortal endothelial cells; assay: Chromium release cytotoxicity assay with IS-CD8+ effector cells; format: cell-based, mouse; details: for killing of endothelial cells isolated from NOD aorta by IS-CD8+ cells: 0.1 μM exogenous peptide
Procedure: Chromium release cytotoxicity assay—Pancreatic islets or monolayers of cultured aortal endothelial cells were dispersed into single-cell suspension by incubation in cell-dissociation buffer (Sigma), labeled with 100 μCi of Na2^51CrO4 (ICN Pharmaceuticals, Costa Mesa, Calif.) in 200 μl of complete Click's medium containing 5% FCS for 2 h at 37° C., washed three times, and co-cultured for 8-12 hours in 96-well plates (10^4 targets per well in 200 μl of Click's medium with 5% FCS) with effector IS CD8^+ cells at different effector-to-target ratios with different concentrations of InsB^15-23 peptide. To confirm the cytotoxic potential of IS-CD8^+ cells, labeled P815 mastocytoma (H2^d)cells were loaded with different concentrations of InsB^15-23 peptide and used as targets in the 4 hrs cytotoxicity assay. Specific cytotoxicity was based on the measurement of ^51Cr release in 100 μl aliquots of cell-free supernatant using a gamma-counter (Wallac, Turku, Finland) and calculated using the formula: Specific Cytotoxicity (%)=[(Experimental Release−Spontaneous Release)/(Maximum Release−Spontaneous Release)]×100%.

[3] = test system: IS-CD8^+ cells adhesion to aortal endothelium from NOD mice; assay: Parallel plate flow chamber adhesion assay under shear stress; format: cell-based, mouse
Procedure: Primary vascular endothelium cell culture—Isolation and culture of vascular endothelium from mouse aorta was performed as described (16). Briefly, neutralized collagen extracellular matrix was aliquoted into 24-well plates, allowed to gel at 37° C. for 60 min, and equilibrated overnight with complete endothelial cell medium consisting of complete Click's medium with 20% FCS, and 50 μg/ml of Endothelial Cell Growth Supplement (Becton-Dickinson). The segments of thoracic aorta from adult NOD mice were placed endothelial-side down onto the collagen gel. Thirty-six hours later, 1 ml of complete endothelial cell medium was carefully added. After 3-5 days, the collagen gel was digested with a 0.3% collagenase H (Sigma) solution and the released cells were transferred to a T25 tissue culture flask. After reaching confluence, cells were detached by incubation with cell-dissociation buffer (Sigma), and split at a 1:3 ratio. Passage 2 to 5 cells were used for the experiments.
Parallel Plate Flow Chamber and Adhesion Assay—Aortal endothelial cells were plated on 35 mm Costar tissue culture dishes and allowed to reach confluence. The cells were then treated for 2 -3 hrs with 100 μM of InsB^15-23 or LLO^91-99 peptides in complete endothelial cell medium. In some experiments anti-K^d (SF 1-1.1) blocking mAbs were added for 20 min before the adhesion assay. The adhesion of IS-CD8^+ cells under shear stress was examined with a parallel plate flow chamber obtained from Glycotech (Rockville, Md.) following the manufacturer's instructions and as previously described (17-19). A flow chamber with a 5-mm-wide gasket was used. Negative flow pressure was generated and controlled with an automated syringe pump (Braintree Scientific, Quincy, Mass.). IS-CD8^+ cells were labeled with CFSE as described above, pretreated in some experiments with 100 ng/ml of mouse recombinant SLC (R&D Systems) in Click's medium for 30 min, and injected at a concentration of 3×10^6/ml into the flow chamber. After IS-CD8^+ cells were allowed to settle on the plate for the indicated length of time, the flow rate was increased stepwise every 10 s in increments of […] (˜4 dynes/cm^2 shear stress) to a maximum of 7.7 ml/min (corresponding to ˜24 dynes/cm^2). Lymphocyte adhesion was visualized with a Leica inverted fluorescent microscope and recorded using a Spot-RT digital camera (Diagnostic Instruments, Sterling Heights, Mich.). Images were converted into digital movies and analyzed using Metamorph software (Universal Imaging Corp., Downingtown, Pa.). Labeled IS-CD8^+ cells were counted in frames separated by equal time intervals from the start of the stress. Adhesion of cells in each frame was determined as a fraction (%) of the initial number of cells in the frame preceding the start of flow.

For pertussis toxin [PTx], the “response of PTx-treated IS-CD8+ cells to InsB15-23 peptide stimulation” value (IS-CD8^+ cells) was “responded normally”, the “viability of IS-CD8+ cells treated with PTx” value (IS-CD8^+ cells) was “did not lose their viability” and the “distribution of PTx-treated IS-CD8+ cells in the spleen” value ([1]; NOD mice, vs untreated cells) was “avoided T cell zones”. The “homing of PTx-treated IS-CD8+ cells to the pancreatic islets” value ([1]; cells treated in vitro with 100 ng/ml PTx for 2 h, injected into NOD mice, 24 hrs after injection) was “abolishes; also recorded: practically absent from the islets”.

“LYLVCGERG [InsB^15-23 peptide, synthetic insulin B chain peptide]” was tested, and the “killing of endothelial cells isolated from NOD aorta by IS-CD8+ cells” value [2] was “killed”, the “lysis of islet β cells from H2k/d (C3D2) mice by IS-CD8+ cells” value ([2]; peptide added exogenously, 50:1 effector-to-target ratio) was “restored” and the “adhesion of the T cells to endothelial monolayers” value ([3]; monolayers pre-cultivated with 100 μM peptide, no SLC, FIG. 7A) was “increased adhesion”. For the same molecule, the “contact time with endothelial cells prior to start of flow needed for adhesion significantly different from no-peptide control” value ([3]; peptide-treated monolayers, no SLC) was 300 s.

For “LLO^91-99 peptide: control K^d-binding listeriolysin-derived peptide (GYKDGNEYI; UniProt P13128 91-99, looked up, fragment)”, the “killing of endothelial cells isolated from NOD aorta by IS-CD8+ cells” value [2] was “no effect”.

B1: SLC: mouse recombinant SLC (R&D Systems), chemokine CCL21 (protein, UniProt P84444 24-133, looked up)
C-C motif chemokine 21a: SDGGGQDCCLKYSQKKIPYSIVRGYRKQEPSLGCPIPAILFSPRKHSKPELCANPEEGWVQNLMRRLDQPPAPGKQSPGCRKNRGTSKSGKKGKGSKGCKRTEQTQPSRG
B1 was tested, and the “time necessary for adhesion” value ([3]; T cells pre-treated with 100 ng/ml SLC, endothelium with InsB15-23 peptide) was 90 s, the “baseline adhesion in the absence of specific peptide” value ([3]; T cells pre-treated with SLC) was “increased” and the “fraction of adherent cells” value ([3]; T cells pre-treated with SLC vs not exposed to SLC) was “larger”.
